Consider three compounds from the NIST ThermoML archive (doi:10.1021/je7005727).

± gives the expanded uncertainty stated by the source.

The conditions of this data set: 101.33 kPa, Liquid; for speed of sound: Sing-around technique in a fixed-path interferometer.

What is called mass density is mass per unit of volume. As a reminder, the speed of sound is the propagation velocity of pressure waves in the medium. Take `CCCCO` [butan-1-ol]: the mass density was determined as 809.644 ± 0.46 kg/m3 (293.15 K), 805.842 ± 0.47 kg/m3 (298.15 K) and 801.995 ± 0.47 kg/m3 (303.15 K). The speed of sound was determined as 1256.7 ± 0.82 m/s (293.15 K), 1239.2 ± 0.81 m/s (298.15 K) and 1222.7 ± 0.81 m/s (303.15 K).

In the case of `CCCCCCO` [hexan-1-ol], the speed of sound runs as follows: (293.15 K) 1320.3 ± 1.2 m/s; (298.15 K) 1303 ± 1.2 m/s; (303.15 K) 1286.3 ± 1.2 m/s.

For `CCCCCO` [pentan-1-ol], the mass density by setting is: (293.15 K) 814.738 ± 0.76 kg/m3; (298.15 K) 811.067 ± 0.77 kg/m3; (303.15 K) 807.366 ± 0.78 kg/m3. Besides, the speed of sound stood at 1292.5 ± 1.2 m/s (293.15 K), 1275.1 ± 1.2 m/s (298.15 K) and 1258.5 ± 1.2 m/s (303.15 K).
